One series has as its target T1, human TRPA1 (Homo sapiens, UniProt O75762, K186N/R3C/R58T).
T1 construct: expressed in transfected cells; pcDNA3.1(+) vector)
The series can be described thus: Measurement of TRPA1 activation activity (intracellular calcium, FLIPR, HEK293 cells stably expressing human TRPA1). It is filed as cell-based. Conditions: change of intracellular calcium concentration. As to the method:
10 ng of Human brain mRNA (Clontech Co.) was treated with DNase, and then was reverse transcribed using kit for reverse transcription-polymerase chain reaction (RT-PCR) (SUPERSCRIPT First-Strand Synthesis System for RT-PCR; Invitrogen Co.) to synthesize the first strand cDNA. PCR using a hot start method was performed using the first strand cDNA as a template and Taq DNA polymerase (LA Taq DNA polymerase; TAKARA SHUZO). The PCR was performed using oligonucleotides consisting of the nucleotide sequences, represented by sequence number 2 as a sense primer and sequence number 3 as an antisense primer, in which firstly, heat denaturation was performed at 98° C. (1 minute), and then a cycle of 98° C. (15 seconds)/56° C. (30 seconds)/72° C. (5 minutes) was repeated 35 times. As a result, a DNA fragment of about 3.3 kbp was amplified.
The DNA fragment was cloned to pCR-TOPO vector using a cloning kit (TOPO XL PCR Cloning Kit; Invitrogen). The obtained plasmid DNA was digested with restriction enzymes KpnI and HindIII, and then was cloned using plasmid pcDNA 3.1(+)(Invitrogen). In this connection, the plasmid pcDNA 3.1(+) has a promoter sequence derived from cytemegalovirus, and can be used in order to express a protein in animal cells.
The nucleotide sequences of the obtained clones were analyzed using DNA sequencer (ABI3700 DNA Sequencer; Applied Biosystems) by dideoxyterminator method, and the nucleotide sequence represented by sequence number 1 was obtained. Furthermore, when these sequences were translated to amino acid sequences, the amino acid sequence represented by sequence number 1 was obtained.
After constructing the expression vector of the human TRPA1 gene, selection by G418 was performed from the HEK293 cells which temporarily expressed TRPA1 by transfection operation to obtain cells stably expressing TRPA1. The above operation was performed according to known methods (experimental medicine supplementary volume, “Cultivation Cell Experimental Methods for Molecular Biology Study” published by Toshio Kuroki, Namho Hue and Kazuhiro Chida, 1995, Yodosha).
In order to measure the change of the intracellular calcium concentration in the cells stably expressing the human TRPA1, the change of the intracellular calcium concentration when a compound to be tested was added was measured using FLIPR (Molecular Device).
In order to measure the change of the intracellular calcium concentration with FLIPR, the following pretreatment was performed. First of all, assay buffer was prepared which was for adding fluorescent pigment Fluo4-AM (DOJIN) to the cells or washing the cells just before performing FLIPR assay. To a solution (hereinafter, HBSS/HEPES solution) where 20 mL of 1M HEPES (pH 7.4; Invitrogen) was added to 1000 mL of a physiological saline buffer (Hank's Balanced Salt Solution; HBSS) (Invitrogen), was added 10 mL of a solution where 710 mg of probenecid (Sigma) was dissolved into 5 mL of 1M aqueous NaOH solution and 5 mL of HBSS/HEPES solution was further added and mixed, and the assay buffer was thus prepared. Then, 50 μg of Fluo4-AM was dissolved into 22 μL of DMSO (DOJIN), the same amount of 20% pluronic acid (Molecular Probes) was added thereto and mixed, and the mixture was added to the 10.6 mL of the assay buffer where 105 μL of fetal bovine serum was added, to prepare a fluorescent pigment solution. The medium of the cells stably expressing TRPA1 was removed, 100 μL per well of the fluorescent pigment solution was dispensed immediately, followed by cultivation in a CO2 cultivator for 1 hour, and the fluorescent pigment was soaked in the cells. The cells after cultivation were washed using the assay buffer, followed by being set in FLIPR. Furthermore, a test sample, which was added to the cells stably expressing TRPA1, was prepared by using the assay buffer, and at the same time, was set in FLIPR. […]
(In general: Calcium assays in cells follow changes in intracellular calcium, usually with a dye or a luminescent sensor.)

Another series addresses Cytochrome P450(2D6) (Homo sapiens, UniProt P10635). The series is described as follows: Cytochrome P450(2D6) enzyme inhibition test. Conditions: CYP2D6, fluorescent substrate 1.5 μmol/L, 37° C., 20 minutes. It is filed as in vitro ADME. The procedure:
The experiment was performed in accordance with the method of Crespi et al. (Analytical Biochemistry, 248, 188-190, 1997).
As a substrate, 3-[2-(N,N-diethyl-N-methylamino)ethyl]-7-methoxy-4-methyl coumarine (1.5 μmol/L) a compound to be tested (3.1×10^−7 to 2×10^−5 M) and an enzyme (2.5×10^−8 M) were incubated at 37° C. for 20 minutes in total of […] of 100 mM phosphorous buffer (pH=7.4) including 8.2 mM NADP+, 0.41 mM glucose-6-phosphate, 0.41 mM MgCl2 and 0.4 Units/mL glucose-6-phosphate dehydrogenase, using 96 well plates. Then, 0.5 M aqueous 2-amino-2-hydroxymethyl-1,3-propandiol solution containing 80% acetonitrile was added to stop the reaction, fluorescence intensity (excitation wavelength; 390 nm, fluorescent wavelength; 460 nm) was measured with a fluorescent plate reader. An inhibition ratio was calculated with the following formula, and the test compound concentration when the inhibition ratio is 50% (IC50) was obtained.
C1: fluorescence intensity in the presence of the test compound and enzyme at know concentrations, and the substrate
C0: fluorescence intensity in the presence of the enzyme and substrate, without the test compound
B1: fluorescence intensity of blank well

The test system of a further series is gastric emptying of rats. The series is described as follows: Activity to gastric emptying of TRPA1 agonist (phenol red, rats). It is filed as in vivo. The settings on record: Rattus norvegicus; male wistar rats, oral administration, versus control animals; read-out: ED50 (amount which suppresses 50% of gastric emptying). An excerpt: When EC cell is stimulated by content of a gastrointestinal tract, 5-HT is secreted. The secreted 5-HT promotes the secretion or motility through a 5-HT receptor present in intestinal nerve plexus or gastrointestinal smooth muscle. The secreted 5-HT is instantly taken into a cell by its specific transporter, and is metabolized by […]. Thus, while it is considerably difficult to directly measure the secreted 5-HT concentration, it has been known that gastric emptying is delayed as a physiological activity through 5-HT in rodents. In order to verify in vivo activity through 5-HT of the compound to be tested, activity to gastric emptying of rats by various TRPA1 agonists was studied.
In the experiment, male wistar rats (body weight 290 to 360 g) were used. The animals were purchased from Japan SLC (Shizuoka). The animals were allowed to drink water freely under a constitutive environment.
5 minutes after the medicine was orally administered, 0.05% phenol red solution (1.5 mL) was orally administered. After 15 minutes, rats were put painlessly to death by cervical vertebral dislocation, their stomachs were exenterated, and phenol red was eluted with 0.1M aqueous NaOH solution (5 mL) from the exenterated stomachs. 20% aqueous trichloroacetic acid solution (0.1 mL) was added to the NaOH solution (0.5 mL), followed by stirring and centrifugation at 15,000 rpm, at 4° C., for 10 minutes. 0.5M aqueous NaOH solution (0.2 mL) was added to the supernatant (0.05 mL), followed by stirring, and absorbance at 560 nm was measured using an absorption spectrometer (spectrometer spectramax M2; Molecular Devices, CA, USA).
A gastric emptying was calculated by the following calculating formula.
Gastric emptying (%)=100−(A/B)×100
A: amount of phenol red remaining in stomach
B: amount of phenol red remaining in stomach just after administering phenol red
ED50 values (amount of the compound to be tested which suppresses 50% of gastric emptying, with respect to the control animals without administering the compound to be tested) of some of the compounds of the formula (I) are shown in Table 2. In this connection, comparative compound 1 and comparative compound 2 are (3E)-1-methyl-3-(2-oxopropyridene)-1,3-dihydro-2H-indol-2-one, and (3E)-3-(2-oxopropyridene)-1-prop-2-in-1-yl-1,3-dihydro-2H-indol-2-one described in Non Patent Document 4 above, and has the following chemical structures, respectively.

The values that follow come from patent US20110009379A1, “INDOLINONE COMPOUND” (ASTELLAS PHARMA INC., priority 2008, published 2011).

Molecules are shown by their SMILES. Where only a bound is given, the exact number is not on record here.

Broadly, the melting point is the temperature, or range, at which the solid turns liquid. Broadly, the EC50 is the midpoint of the concentration-response curve. What is called IC50 is the concentration needed to halve the response being measured. Read a high IC50 as weaker potency. By ED50 is commonly meant the midpoint of the dose-response relation.

T1 sequence (O75762 whole entry R3C/R58T/K186N): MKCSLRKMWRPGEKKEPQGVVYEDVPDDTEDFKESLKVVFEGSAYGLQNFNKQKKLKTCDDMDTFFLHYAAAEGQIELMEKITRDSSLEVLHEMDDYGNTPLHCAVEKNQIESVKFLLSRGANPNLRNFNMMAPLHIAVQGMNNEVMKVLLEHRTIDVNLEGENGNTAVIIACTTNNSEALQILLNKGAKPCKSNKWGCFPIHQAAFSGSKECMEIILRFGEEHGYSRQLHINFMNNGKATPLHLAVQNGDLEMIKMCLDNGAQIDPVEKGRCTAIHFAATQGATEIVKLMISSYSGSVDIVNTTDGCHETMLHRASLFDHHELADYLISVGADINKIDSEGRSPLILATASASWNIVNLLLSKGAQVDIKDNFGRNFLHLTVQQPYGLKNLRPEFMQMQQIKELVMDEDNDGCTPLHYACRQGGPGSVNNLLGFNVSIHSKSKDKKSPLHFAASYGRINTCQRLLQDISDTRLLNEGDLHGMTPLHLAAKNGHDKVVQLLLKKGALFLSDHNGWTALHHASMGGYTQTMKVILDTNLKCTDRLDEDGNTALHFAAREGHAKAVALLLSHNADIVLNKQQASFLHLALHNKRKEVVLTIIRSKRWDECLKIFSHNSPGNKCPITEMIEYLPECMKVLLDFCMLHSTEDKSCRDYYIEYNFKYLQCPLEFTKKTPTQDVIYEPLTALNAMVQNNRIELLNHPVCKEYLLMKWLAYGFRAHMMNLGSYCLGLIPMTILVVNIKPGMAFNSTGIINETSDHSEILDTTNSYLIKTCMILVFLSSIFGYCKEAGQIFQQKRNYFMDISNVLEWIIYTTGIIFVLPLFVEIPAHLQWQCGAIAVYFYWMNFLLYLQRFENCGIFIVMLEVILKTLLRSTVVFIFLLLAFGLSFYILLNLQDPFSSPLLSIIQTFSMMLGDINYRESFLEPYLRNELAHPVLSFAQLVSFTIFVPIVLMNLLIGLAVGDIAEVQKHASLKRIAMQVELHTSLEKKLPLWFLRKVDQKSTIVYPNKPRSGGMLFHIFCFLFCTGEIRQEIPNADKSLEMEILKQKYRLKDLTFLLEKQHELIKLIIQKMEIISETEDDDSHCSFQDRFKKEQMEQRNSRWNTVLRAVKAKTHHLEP
Sequence of Cytochrome P450(2D6) (P10635 whole entry): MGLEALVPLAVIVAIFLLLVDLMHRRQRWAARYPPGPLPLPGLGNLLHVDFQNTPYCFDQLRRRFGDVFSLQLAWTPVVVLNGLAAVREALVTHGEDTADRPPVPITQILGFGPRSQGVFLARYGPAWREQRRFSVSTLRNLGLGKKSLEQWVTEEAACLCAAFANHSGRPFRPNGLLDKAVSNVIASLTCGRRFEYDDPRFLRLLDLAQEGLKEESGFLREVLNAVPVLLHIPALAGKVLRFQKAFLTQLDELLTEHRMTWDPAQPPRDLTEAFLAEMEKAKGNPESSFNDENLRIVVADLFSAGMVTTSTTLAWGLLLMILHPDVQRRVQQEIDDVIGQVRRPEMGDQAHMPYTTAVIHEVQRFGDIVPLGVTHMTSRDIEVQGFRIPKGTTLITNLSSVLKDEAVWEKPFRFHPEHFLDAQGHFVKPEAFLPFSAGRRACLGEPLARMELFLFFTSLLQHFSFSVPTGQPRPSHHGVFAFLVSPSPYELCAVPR

In turn, `CC(C)CCN1C(=O)/C(=C/C(=O)O)c2cccc(F)c21` [Example 49, (2E)-[7-fluoro-1-(3-methylbutyl)-2-oxo-1,2-dihydro-3H-indol-3-ylidene]acetic acid] registered a melting point of 142 to 144 °C. The EC50 on human TRPA1 is 0.83 µM.

On to `CCC(CC)CN1C(=O)/C(=C/C(=O)N2CCCC2)c2ccccc21` [Example 64, (3E)-1-(2-ethylbutyl)-3-(2-oxo-2-pyrrolidin-1-ylethylidene)-1,3-dihydro-2H-indol-2-one], for which the melting point lay within 71 to 73 °C. In the case of `CN(C)C(=O)/C=C1/C(=O)N(CC2CCCC2)c2c(F)cccc21` [Example 43, (2E)-2-[1-(cyclopentylmethyl)-7-fluoro-2-oxo-1,2-dihydro-3H-indol-3-ylidene]-N,N-dimethylacetamide], the melting point is 51 to 53 °C. At Cytochrome P450(2D6), this compound returned an IC50 above 25 µM. For the same compound, the EC50 at human TRPA1 amounted to 3.76 µM.

`O=C(O)/C=C1/C(=O)N(Cc2ccccc2)c2c(F)cccc21` [Example 18, (2E)-(1-benzyl-7-fluoro-2-oxo-1,2-dihydro-3H-indol-3-ylidene)acetic acid] came in with a melting point of 168 to 170 °C. The ED50 in the series on gastric emptying of rats was determined as 3.6 mg/kg. `O=C(/C=C1/C(=O)N(CC2CCC2)c2ccccc21)N1CCCC1` [Example 67, (3E)-1-(cyclobutylmethyl)-3-(2-oxo-2-pyrrolidin-1-ylethylidene)-1,3-dihydro-2H-indol-2-one]: the melting point fell in the range of 108 to 110 °C. For `O=C(/C=C1/C(=O)N(CC2CCCC2)c2c(F)cccc21)N1CCOCC1` [Example 40], in the series with gastric emptying of rats, the median effective dose (ED50) was determined as 0.59 mg/kg. Consider `O=C(/C=C1/C(=O)N(CC2CCCC2)c2c(F)cccc21)N1CCC1` [Example 33], for which the concentration giving a half-maximal response (EC50) on human TRPA1 turned out to be 1.3 µM. `CCC(CC)CN1C(=O)/C(=C/C(=O)N2CCC2)c2ccccc21` [Example 65, (3E)-3-(2-azetidin-1-yl-2-oxoethylidene)-1-(2-ethylbutyl)-1,3-dihydro-2H-indol-2-one] showed a melting point of 116 to 118 °C. Same read-out and setting: as for `O=C(/C=C1/C(=O)N(CC2CCCC2)c2ccccc21)N1CCC1` [Example 62, (3E)-3-(2-azetidin-1-yl-2-oxoethylidene)-1-(cyclopentylmethyl)-1,3-dihydro-2H-indol-2-one], the figure is 111 to 113 °C. Take `NC(=O)/C=C1/C(=O)N(CC2CCCC2)c2c(F)cccc21` [Example 29]: the EC50 at human TRPA1 is 0.66 µM. As to `O=C(/C=C1/C(=O)N(CC2CCC2)c2ccccc21)N1CCC1` [Example 66, (3E)-3-(2-azetidin-1-yl-2-oxoethylidene)-1-(cyclobutylmethyl)-1,3-dihydro-2H-indol-2-one], the melting point was in the range of 133 to 135 °C. With `O=C(/C=C1/C(=O)N(CC2CCCCC2)c2ccccc21)N1CCC1` [Example 61, (3E)-3-(2-azetidin-1-yl-2-oxoethylidene)-1-(cyclohexylmethyl)-1,3-dihydro-2H-indol-2-one], the melting point lay within 163 to 165 °C.

On to `CC(C)(C)CN1C(=O)/C(=C/C(=O)O)c2ccccc21` [Example 25], for which, in the series with gastric emptying of rats, the ED50 came out at 0.31 mg/kg. Turning to `CCC(CC)CN1C(=O)/C(=C/C(=O)O)c2cccc(F)c21` [Example 36], the ED50 with gastric emptying of rats was 0.069 mg/kg. Consider `O=C(O)/C=C1/C(=O)N(CC2CC2)c2c(F)cccc21` [Example 37, (2E)-[1-(cyclopropylmethyl)-7-fluoro-2-oxo-1,2-dihydro-3H-indol-3-ylidene]acetic acid], for which the melting point lay in the range of 171 to 173 °C. This compound had an IC50 on Cytochrome P450(2D6) above 50 µM. Turning to `COc1cccc(CN2C(=O)/C(=C/C(=O)O)c3cccc(Cl)c32)c1` [Example 39], the ED50 in the series on gastric emptying of rats was found to be 0.24 mg/kg. As for `O=C(/C=C1/C(=O)N(CC2CCCC2)c2c(F)cccc21)N1CCCC1` [Example 30], the ED50 in the series with gastric emptying of rats is 0.42 mg/kg. `CCC(CC)CN1C(=O)/C(=C/C(=O)O)c2ccccc21` [Example 63, (2E)-[1-(2-ethylbutyl)-2-oxo-1,2-dihydro-3H-indol-3-ylidene]acetic acid] displayed a melting point of 147 to 149 °C. Regarding `NC(=O)/C=C1/C(=O)N(Cc2ccccc2)c2ccccc21` [Example 20], the ED50 with gastric emptying of rats was 4.4 mg/kg. `CN(C)C(=O)/C=C1/C(=O)N(CC2CCCCC2)c2ccccc21` [Example 59, (2E)-2-[1-(cyclohexylmethyl)-2-oxo-1,2-dihydro-3H-indol-3-ylidene]-N,N-dimethylacetamide] returned a melting point of 80 to 82 °C. In turn, `CC[C@H](C)CN1C(=O)/C(=C/C(=O)O)c2cccc(F)c21` [Example 47, (2E)-{7-fluoro-1-[(2S)-2-methylbutyl]-2-oxo-1,2-dihydro-3H-indol-3-ylidene}acetic acid] registered a melting point of 137 to 139 °C. Besides, the EC50 on human TRPA1 was found to be 1.01 µM. Also, in the series with gastric emptying of rats, the ED50 amounted to 0.61 mg/kg.

Regarding `C#CCN1C(=O)/C(=C/C(C)=O)c2ccccc21` [comparative compound 2, (3E)-3-(2-oxopropyridene)-1-prop-2-in-1-yl-1,3-dihydro-2H-indol-2-one, reference compound], the ED50 in the series with gastric emptying of rats came to 8.8 mg/kg.
